Reference: patent publication US20240309090A1, “MODULATION OF ANDROGEN SIGNALING TO INNATE IMMUNE KILLING OF PROSTATE CANCER” (Brown University, priority 2023, published 2024)
Entries after “also recorded” stand apart in the source; their conditions may differ.

Experiments:
Type in all cases: cell-based
NK-92 cells = experiment: Cytokine secretion of NK-92 monoculture (Luminex 200); conditions: for NK-92 secretion of T cell chemokine CCL5: FIG. 13A (A6); for NK-92 cell secretion of IFN-γ / NK-92 cell secretion of IL-10 / NK-92 cell secretion of granzyme B: monoculture, DHT for 72 h before treatment, supernatant
Protocol: The secretion profile was assessed in monoculture conditions without the PCa cell lines.
The medium was collected 24 hours after treatment and stored at −80° C. until readout. Samples were shipped to Brown University to run them in biological duplicate on a Luminex 200 Instrument (R&D LX200-XPON-RUO), which captures cytokines on magnetic antibody-coated beads and measures cytokine levels using a system based on the principles of flow cytometry (see https:/www.luminexcorp.com/luminex-100200/#overviewfor more information). A custom […] panel was split into 34-plex and 18-plex assays (R&D LXSAHM) and was run on the Luminex 200 instrument according to the manufacturer's protocol.

[1] = tested on: PCa cell lines (DU145, 22Rv1, LNCaP, PC3); experiment: Western blot of apoptotic and antiapoptotic proteins in PCa cell lines; conditions: for expression of Bcl-XL: 22Rv1; for expression of c-IAP2: DU145 cells and LNCaP; for Survivin levels: LNCaP; for expression of MCL-1: any cell lines
Protocol: We investigated the effects of ARi on PCa cells' expression of Bcl-2 proteins and cytokine secretion to assess a possible priming effect of treatment, making these cells susceptible to NK cell killing. Enzalutamide (5, 10, and 15 μM) and darolutamide (10, 20 μM) reduced the expression of the X-linked inhibitor of apoptosis (XIAP) in DU145, 22Rv1, and LNCaP cell lines (FIG. 14A-B). Western Blot analysis of apoptotic and antiapoptotic proteins on the PCa cell lines with darolutamide (10 and 20 μM) and enzalutamide ([…]) for 48 h. Treatment with ARi on the PCa cell lines evidenced changes in both pro and antiapoptotic proteins, irrespective of ARi sensitivity. The changes in protein expression were not similar in the PCa cell lines and cannot explain a single mechanism of tumor cell priming for NK cell killing.
Anti-apoptotic proteins and androgen receptor expression in prostate cancer cell lines and immune cells (NK-92) were examined using a western blot. A total of 1×10^5 cells were plated and incubated in a 6 or 12-well plate ([…] 229111 and 229105) for 24 hours to allow the cells to adhere (tumor cells). Treatment conditions were added after cell adhesion or in conjunction with NK cells when these were analyzed. Cells were harvested and lysed using RIPA buffer containing protease inhibitor (Cell Signaling Technology 9806S) and phosphatase inhibitor (PHOSS-RO Roche 4906845001). Denaturing sample buffer was added, and samples were boiled at 95° C. for 10 minutes and an equal amount of protein lysate (10-20 ug) was electrophoresed through 4-12% SDS-PAGE gels (Invitrogen) and then transferred to PVDF membranes. The membrane was blocked with 5% milk in 1×TTBS and incubated overnight with the appropriate primary antibody (Cell Signaling c-IAP2 58C7 Rabbit mAb #3130; Cell Signaling XIAP Antibody #2042; Cell Signaling Mcl-1 (D2W9E) Rabbit mAb #94296; Cell Signaling Survivin (71G4B7) Rabbit mAb; Cell Signaling Ran Antibody #4462; Cell Signaling PARP 9542T mAb; Cell Signaling Bcl-2 Antibody #2876; Cell Signaling Bcl-xL (54H6) Rabbit mAb; Sigma Aldrich Monoclonal Anti-B-Actin antibody #A5441; Cell Signaling Androgen Receptor (E3S4N) Rabbit mAb (Carboxy-terminal Antigen) #70317). The primary antibody membranes were incubated in the appropriate HRP-conjugated secondary antibody (either mouse, Thermo Scientific #31430, or rabbit, Thermo Scientific #31460) for two hours. The levels of antibody binding were detected using ECL western blotting detection reagent and the Syngene imaging system.

LNCaP = experiment: Co-culture of LNCaP with NK-92 cells, immune-mediated tumor cell killing
Protocol: They were co-treated with enzalutamide ([…]) or darolutamide (20 μM) for 48 h. Doses of AR inhibitors (ARi) used in the co-culture experiments were based on previous IC50 experiments. […] The immune-mediated effect of NK-92 on the PCa cell lines in the presence of enzalutamide (immune enhancement death) was normalized to baseline immune and tumor cell killing in each condition [(tumor cells+immune cells)-tumor baseline death=baseline immune death]. […] Cytokine analysis was performed to investigate the activation phenotype of NK cells when treated with ARi.
Prostate cancer cell lines were dyed with the blue CMAC live-cell dye (Thermo Fisher Scientific #C2110, per manufacturer protocol). Blue-fluorescent cancer cells were plated at a density of 10,000 cells per well of a 48-well plate. NK-92 cells were dyed with green CMFDA (Cayman Chemical Company #19583, per manufacturer protocol). Green-fluorescent NK-92 cells were added to the blue-fluorescent cancer cells at a 1:1 ratio. Enzalutamide (10 μM), darolutamide (20 μM), and 1 μM ethidium homodimer (EthD-1) were added at the same time as the NK cells. After 24 hours of co-culture, images of live cancer cells, live NK cells, and dead cells were taken using a fluorescent microscope. The co-culture experiments were run with internal control conditions and as a single treatment. Normalization was performed after analysis to take baseline death conditions into each experiment run. […] Cell adhered over 24 h, and when patient-derived NK cells were added, a control well was trypsinized, and cells resuspended and counted to adjust a 1:1 ratio before treatment addition. […]
Live cancer cells, NK cells, and dead cells were quantified using FIJI (Fiji Is Just ImageJ) software for images derived from fluorescent co-culture images. Images from the ImageXpress system were quantified using MetaXpress cytoplasmic/nuclear staining software. The percent of dead tumor cells in each well was quantified, and this percentage was normalized by subtracting baseline death from cancer cell-only wells, NK cell-only wells, or both.

[2] = DU145, 22Rv1, LNCaP, enzalutamide 5, 10, 15 μM, darolutamide 10, 20 μM, 48 h

## CC(O)c1cc(C(=O)N[C@@H](C)Cn2ccc(-c3ccc(C#N)c(Cl)c3)n2)n[nH]1 (some centres unmarked) [darolutamide]
NK-92 cells
  NK-92 secretion of T cell chemokine CCL5: reduces
  NK-92 cell secretion of IFN-γ: 45.6 pg/mL
  NK-92 cell secretion of IL-10: 15.24 pg/mL
  NK-92 cell secretion of granzyme B: 1599 pg/mL
[1]
  expression of Bcl-XL: reduced
  expression of c-IAP2: reduced
  Survivin levels: decreased
  expression of MCL-1: no significant change
[1]; listed as Darolutamide
  expression of Bcl-XL: lower levels
  expression of c-IAP2: reduced levels
  Survivin levels: lower levels
[1]; [2]
  expression of XIAP: reduced; also recorded: more pronounced
[1]; DU145, 22Rv1, LNCaP, enzalutamide 5, 10, 15 μM, darolutamide 10, 20 μM, 48 h, listed as Darolutamide
  expression of XIAP: reduced levels
[1]; PC3
  expression of XIAP: did not change

## CNC(=O)c1ccc(N2C(=S)N(c3ccc(C#N)c(C(F)(F)F)c3)C(=O)C2(C)C)cc1F [enzalutamide]
LNCaP; LNCaP + NK-92 1:1, 24 hours
  cell death rate (NK cell-mediated tumor killing): 48.3%
LNCaP; LNCaP + NK-92 1:1, enzalutamide 10 μM, FIG. 15A
  NK cell killing of PCa cells (immune enhancement): 35.32%
NK-92 cells
  NK-92 secretion of T cell chemokine CCL5: reduces
  NK-92 cell secretion of IFN-γ: 48.88 pg/mL
  NK-92 cell secretion of IL-10: 16.6 pg/mL
  NK-92 cell secretion of granzyme B: 1027 pg/mL
[1]
  expression of Bcl-XL: reduced
  expression of c-IAP2: reduced
  Survivin levels: decreased
  expression of MCL-1: no significant change
[1]; listed as Enzalutamide
  expression of Bcl-XL: lower levels
  expression of c-IAP2: reduced levels
  Survivin levels: lower levels
[1]; [2]
  expression of XIAP: reduced levels
[1]; PC3
  expression of XIAP: did not change
